Experiment [1] concerns the target T1, 5-HT6 receptor (Homo sapiens, UniProt P50406). The experiment is described as follows: Radioligand binding, 5-HT6 ([3H]-LSD displacement).
The target in experiment [2] is 5-HT7 receptor (Homo sapiens, UniProt P34969). The experiment is described as follows: Radioligand binding, 5-HT7 ([3H]-5-CT displacement).
Experiment [3] concerns the target dopamine D2L receptor (Homo sapiens, UniProt P14416). Put plainly: Radioligand binding, D2 ([3H]-raclopride displacement).
Experiment [4] deals with T2, 5-HT1A receptor (Homo sapiens, UniProt P08908).
T2 sequence (P08908 1-422): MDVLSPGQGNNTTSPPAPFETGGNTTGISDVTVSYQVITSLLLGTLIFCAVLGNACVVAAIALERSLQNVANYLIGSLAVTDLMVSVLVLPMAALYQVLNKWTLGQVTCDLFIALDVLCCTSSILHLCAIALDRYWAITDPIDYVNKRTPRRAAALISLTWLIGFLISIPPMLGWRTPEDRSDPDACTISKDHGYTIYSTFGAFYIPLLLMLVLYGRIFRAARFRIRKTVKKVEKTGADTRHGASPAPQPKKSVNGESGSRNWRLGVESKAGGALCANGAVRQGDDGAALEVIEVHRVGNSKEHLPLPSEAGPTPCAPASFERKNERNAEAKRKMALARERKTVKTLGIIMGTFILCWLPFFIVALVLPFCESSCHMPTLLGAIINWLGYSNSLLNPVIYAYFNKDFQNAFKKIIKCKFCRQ
Put plainly: Radioligand binding, 5-HT1A ([3H]-8-OH-DPAT displacement).

The target of experiment [5] is T1, 5-HT6 receptor. The experiment is described as follows: CHO-human-5HT6-Aequorin functional assay (ago-/antagonism). Conditions: test concentration not given; for % inhibition of control agonist response: agonist effect, CHO-human-5HT6-Aequorin cells; for % inhibition of control antagonist response: antagonist effect vs 10^-6 M α-methylserotonin induced luminescence.

Where [6] appears, read: read-out: Ki 5-HT6, cloned human receptor in HEK293, three independent experiments, SEM ± 22%.

Like-named read-outs stand apart in the source and are kept apart here.

dopamine D2L receptor, sequence (P14416 whole entry): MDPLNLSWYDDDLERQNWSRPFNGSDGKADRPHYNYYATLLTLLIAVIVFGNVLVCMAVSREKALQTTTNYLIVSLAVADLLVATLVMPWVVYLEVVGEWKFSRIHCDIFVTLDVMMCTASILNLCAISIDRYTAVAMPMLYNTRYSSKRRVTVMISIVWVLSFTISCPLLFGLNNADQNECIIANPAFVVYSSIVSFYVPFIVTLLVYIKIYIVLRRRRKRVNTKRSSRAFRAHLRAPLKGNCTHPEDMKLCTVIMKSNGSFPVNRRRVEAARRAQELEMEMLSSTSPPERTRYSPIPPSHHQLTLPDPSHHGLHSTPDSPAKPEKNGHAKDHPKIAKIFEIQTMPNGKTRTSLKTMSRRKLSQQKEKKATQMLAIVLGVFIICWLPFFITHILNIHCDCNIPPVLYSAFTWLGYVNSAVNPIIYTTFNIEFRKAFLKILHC
5-HT7 receptor, sequence (P34969 1-432 limits assumed): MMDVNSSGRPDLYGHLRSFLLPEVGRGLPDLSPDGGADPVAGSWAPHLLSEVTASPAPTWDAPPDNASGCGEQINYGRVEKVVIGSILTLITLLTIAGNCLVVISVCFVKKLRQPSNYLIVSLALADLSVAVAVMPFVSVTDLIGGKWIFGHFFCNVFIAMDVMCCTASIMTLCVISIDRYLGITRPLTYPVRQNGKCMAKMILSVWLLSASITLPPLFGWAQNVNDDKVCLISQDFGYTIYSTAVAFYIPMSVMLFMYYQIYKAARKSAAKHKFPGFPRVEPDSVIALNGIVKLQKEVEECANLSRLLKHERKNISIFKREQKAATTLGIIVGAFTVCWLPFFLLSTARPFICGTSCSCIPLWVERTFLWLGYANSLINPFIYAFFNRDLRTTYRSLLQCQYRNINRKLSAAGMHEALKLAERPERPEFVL
T1 sequence (P50406 whole entry): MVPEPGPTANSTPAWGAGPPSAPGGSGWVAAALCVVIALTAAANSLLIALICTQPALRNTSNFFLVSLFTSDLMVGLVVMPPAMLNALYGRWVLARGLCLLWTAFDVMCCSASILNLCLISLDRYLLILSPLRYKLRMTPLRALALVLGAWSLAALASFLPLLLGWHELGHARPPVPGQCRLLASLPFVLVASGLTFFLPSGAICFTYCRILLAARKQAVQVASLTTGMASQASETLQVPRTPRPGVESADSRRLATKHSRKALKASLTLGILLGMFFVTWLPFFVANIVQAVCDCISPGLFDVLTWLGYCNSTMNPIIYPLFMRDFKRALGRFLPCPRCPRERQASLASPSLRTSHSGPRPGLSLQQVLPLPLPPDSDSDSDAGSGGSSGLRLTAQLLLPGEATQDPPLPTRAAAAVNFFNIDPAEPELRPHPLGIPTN

One may read the Ki as a dissociation constant, usually derived from enzyme kinetics or from competition with a known ligand. Regarding `O=S(=O)(c1ccc(F)cc1)n1ccc2c(NC3CCNC3)nc3ccccc3c21` (stereo not drawn) [Compound 11, 1-((4-fluorophenyl)sulfonyl)-N-(pyrrolidin-3-yl)-1H-pyrrolo[3,2-c]quinolin-4-amine], the Ki came out at 18 nM in experiment [1], 6880 nM in experiment [2], 664 nM in experiment [3] and 5830 nM in experiment [4]. Further, the “% inhibition of control agonist response” value in experiment [5] turned out to be 4.8%. In addition, the “% inhibition of control antagonist response” value in experiment [5] was 51.8%.
As for `O=S(=O)(c1ccc(F)c(F)c1)n1ccc2c(N3CCNCC3)nc3ccccc3c21` [Compound 33, 1-((3,4-difluorophenyl)sulfonyl)-4-(piperazin-1-yl)-1H-pyrrolo[3,2-c]quinolinee], the Ki was 5010 nM in experiment [2], 1780 nM in experiment [3] and 311 nM in experiment [4].
Regarding `COc1cccc(S(=O)(=O)n2ccc3c(N4CCNCC4)nc4ccccc4c32)c1` [Compound 37, 1-((3-methoxyphenyl)sulfonyl)-4-(piperazin-1-yl)-1H-pyrrolo[3,2-c]quinoline], the Ki in experiment [2] was found to be 5250 nM; in experiment [3] it was 7040 nM; in experiment [4], 372 nM.
For the compound `O=S(=O)(c1cccc(F)c1)n1ccc2c(NC3CCNC3)nc3ccccc3c21` (stereo not drawn) [Compound 8, 1-((3-fluorophenyl)sulfonyl)-N-(pyrrolidin-3-yl)-1H-pyrrolo[3,2-c]quinolin-4-amine], the Ki in experiment [1] was determined as 5 nM; in experiment [2], 9590 nM; in experiment [3], 900 nM; in experiment [4] it was 3010 nM. Moreover, the “% inhibition of control agonist response” value in experiment [5] stood at 9.6%. Besides, in experiment [5], the “% inhibition of control antagonist response” value worked out at 80.8%.
For the compound `Cc1c(S(=O)(=O)n2ccc3c(N4CCNCC4)nc4ccccc4c32)sc2ccc(Cl)cc12` [Compound 48, 1-((5-chloro-3-methylbenzo[b]thiophen-2-yl)sulfonyl)-4-(piperazin-1-yl)-1H-pyrrolo[3,2-c]quinoline], the inhibition constant (Ki) amounted to 16 nM in experiment [1], 8820 nM in experiment [2], 190 nM in experiment [3] and 1470 nM in experiment [4]. The “% inhibition of control agonist response” value in experiment [5] is listed as 2.7%. Moreover, the “% inhibition of control antagonist response” value in experiment [5] is given as 37.7%.
In the case of `O=S(=O)(c1ccc(Cl)s1)n1ccc2c(N3CCN(Cc4ccccc4)CC3)nc3ccccc3c21` [Compound 61, 1-((5-chlorothiophen-2-yl)sulfonyl)-4-(4-benzylpiperazin-1-yl)-1H-pyrrolo[3,2-c]quinoline], the Ki in experiment [1] turned out to be 93 nM; in experiment [2] it was 16200 nM; in experiment [3], 239 nM; in experiment [4], 12800 nM.
With `O=S(=O)(c1ccccc1Br)n1ccc2c(N3CCNCC3)nc3ccccc3c21` [Compound 28, 1-((2-bromophenyl)sulfonyl)-4-(piperazin-1-yl)-1H-pyrrolo[3,2-c]quinoline], the inhibitory constant (Ki) in experiment [1] amounted to 3 nM; in experiment [2] it was 7900 nM; in experiment [3], 7150 nM; in experiment [4], 1220 nM.
As for `O=S(=O)(c1cccc(Cl)c1)n1ccc2c(NC3CCNC3)nc3ccccc3c21` (stereo not drawn) [Compound 5, 1-((3-chlorophenyl)sulfonyl)-N-(pyrrolidin-3-yl)-1H-pyrrolo[3,2-c]quinolin-4-amine], the Ki was determined as 2130 nM in experiment [2], 1440 nM in experiment [3] and 3030 nM in experiment [4].
Consider `O=S(=O)(c1cccc2cccnc12)n1ccc2c(N3CCCCC3)nc3ccccc3c21` [Compound 77, 1-(quinolin-8-ylsulfonyl)-4-(piperidin-1-yl)-1H-pyrrolo[3,2-c]quinoline], for which the inhibition constant Ki in experiment [1] was determined as 188 nM; in experiment [2], 27000 nM; in experiment [3], 5830 nM; in experiment [4], 85400 nM.
In the same order, the values of `CN(C)CCNc1nc2ccccc2c2c1ccn2S(=O)(=O)c1ccccc1` [Compound 1, N1,N1-dimethyl-N2-(1-(phenylsulfonyl)-1H-pyrrolo[3,2-c]quinolin-4-yl)ethane-1,2-diamine] are 10 nM, 3970 nM, 2260 nM and 1880 nM.
For the compound `Cc1ccc2sc(S(=O)(=O)n3ccc4c(NC5CCNC5)nc5ccccc5c43)cc2c1` (stereo not drawn) [Compound 23, 1-((5-methylbenzo[b]thiophen-2-yl)sulfonyl)-N-(pyrrolidin-3-yl)-1H-pyrrolo[3,2-c]quinolin-4-amine], the inhibitory constant (Ki) in experiment [1] came to 94 nM; in experiment [2], 1310 nM; in experiment [3] it was 1550 nM; in experiment [4], 19100 nM.
As for `CN1CCN(c2nc3ccccc3c3c2ccn3S(=O)(=O)c2ccc(N)cc2)CC1` [Compound 57, 1-((4-aminophenyl)sulfonyl)-4-(4-methylpiperazin-1-yl)-1H-pyrrolo[3,2-c]quinoline], in experiment [5], the “% inhibition of control agonist response” value worked out at 1.5% and the “% inhibition of control antagonist response” value turned out to be 97.3%.
Regarding `O=S(=O)(c1cccc(C(F)(F)F)c1)n1ccc2c(NC3CCNC3)nc3ccccc3c21` (stereo not drawn) [Compound 14, 1-((3-(trifluoromethyl)phenyl)sulfonyl)-N-(pyrrolidin-3-yl)-1H-pyrrolo[3,2-c]quinolin-4-amine], the figures for the Ki in experiment [1], in experiment [2] and in experiment [3] were 7 nM, 3820 nM and 1280 nM, respectively. Besides, in experiment [5], the “% inhibition of control agonist response” value was 10.8%. The “% inhibition of control antagonist response” value in experiment [5] turned out to be 88.8%.
Take `O=S(=O)(c1cccc2cccnc12)n1ccc2c(N3CCN(Cc4ccccc4)CC3)nc3ccccc3c21` [Compound 62, 1-(quinolin-8-ylsulfonyl)-4-(4-benzylpiperazin-1-yl)-1H-pyrrolo[3,2-c]quinoline]: the inhibition constant Ki in experiment [1] was 66 nM; in experiment [2], 5870 nM; in experiment [3], 1470 nM; in experiment [4] it was 3520 nM.
As to `CN1CCN(c2nc3ccccc3c3c2ccn3S(=O)(=O)c2ccccc2)CC1` [Compound 53, 1-(phenylsulfonyl)-4-(4-methylpiperazin-1-yl)-1H-pyrrolo[3,2-c]quinoline], the inhibitory constant (Ki) in experiment [2] was determined as 3800 nM; in experiment [3], 342 nM; in experiment [4], 127 nM.
Consider `O=S(=O)(c1ccc(C(F)(F)F)cc1)n1ccc2c(N3CCNCC3)nc3ccccc3c21` [Compound 36, 1-((4-(trifluoromethyl)phenyl)sulfonyl)-4-(piperazin-1-yl)-1H-pyrrolo[3,2-c]quinoline], for which the inhibitory constant (Ki) turned out to be 34 nM in experiment [1] (setting [6]), 2260 nM in experiment [2], 13300 nM in experiment [3] and 194 nM in experiment [4].
For `Cc1cccc(S(=O)(=O)n2ccc3c(N4CCNCC4)nc4ccccc4c32)c1` [Compound 39, 1-((3-methylphenyl)sulfonyl)-4-(piperazin-1-yl)-1H-pyrrolo[3,2-c]quinoline], the Ki in experiment [2] (read-out: Ki 5-HT7) is 4140 nM; in experiment [3] (read-out: Ki D2, cloned human receptor in HEK293, three independent experiments, SEM ± 22%) it was 2160 nM; in experiment [4] (read-out: Ki 5-HT1A, cloned human receptor in HEK293, three independent experiments, SEM ± 22%), 760 nM.
On to `CN1CCN(c2nc3ccccc3c3c2ccn3S(=O)(=O)c2cccc(Cl)c2)CC1` [Compound 54, 1-((3-chlorophenyl)sulfonyl)-4-(4-methylpiperazin-1-yl)-1H-pyrrolo[3,2-c]quinoline], for which the results for the inhibition constant Ki in experiment [2], in experiment [3] and in experiment [4] were 3490 nM, 1260 nM and 519 nM, respectively.
For the compound `CN1CCN(c2nc3ccccc3c3c2ccn3S(=O)(=O)c2cccc(F)c2)CC1` [Compound 55, 1-((3-fluorophenyl)sulfonyl)-4-(4-methylpiperazin-1-yl)-1H-pyrrolo[3,2-c]quinoline], the inhibitory constant (Ki) in experiment [2] came to 8250 nM; in experiment [3] it was 894 nM; in experiment [4] it was 640 nM.
In the case of `O=S(=O)(c1ccc(F)cc1)n1ccc2c(N3CCNCC3)nc3ccccc3c21` [Compound 31, 1-((4-fluorophenyl)sulfonyl)-4-(piperazin-1-yl)-1H-pyrrolo[3,2-c]quinoline], the Ki in experiment [1] (setting [6]) came to 18 nM; in experiment [2] it was 6400 nM; in experiment [3], 5940 nM; in experiment [4] it was 214 nM.
Regarding `O=S(=O)(c1ccccc1)n1ccc2c(N3CCN(Cc4ccccc4)CC3)nc3ccccc3c21` [Compound 60, 1-(phenylsulfonyl)-4-(4-benzylpiperazin-1-yl)-1H-pyrrolo[3,2-c]quinoline], the Ki in experiment [1] was 220 nM; in experiment [2], 2360 nM; in experiment [3] it was 415 nM; in experiment [4] it was 33000 nM.
Take `O=S(=O)(c1cccc(Cl)c1)n1ccc2c(N3CCCCC3)nc3ccccc3c21` [Compound 76, 1-((3-chlorophenyl)sulfonyl)-4-(piperidin-1-yl)-1H-pyrrolo[3,2-c]quinoline]: the figures for the inhibition constant (Ki) in experiment [1], in experiment [2] and in experiment [3] were 361 nM, 22300 nM and 14500 nM, respectively. The “% inhibition of control agonist response” value in experiment [5] was determined as 22.2%. For the same compound, in experiment [5], the “% inhibition of control antagonist response” value is reported as 11.6%.
As for `O=S(=O)(c1cc(F)ccc1F)n1ccc2c(N3CCNCC3)nc3ccccc3c21` [Compound 32, 1-((2,5-difluorophenyl)sulfonyl)-4-(piperazin-1-yl)-1H-pyrrolo[3,2-c]quinoline], the inhibitory constant (Ki) in experiment [2] came out at 7690 nM; in experiment [3] it was 5090 nM; in experiment [4], 238 nM.

The values are drawn from US20170239237A1, “PYRROLOQUINOLINE DERIVATIVES AS 5-HT6 ANTAGONISTS, PREPARATION METHOD AND USE THEREOF” (Uniwersytet Jagiellonski, priority 2013, published 2017).
